Assays:
[1] = target: T1, full-length beta-Catenin (Uniprot ID P35222) (Homo sapiens, UniProt P35222); assay: Fluorescence polarization IC50 (beta-catenin / 5FAM-TCF4 10-53 competition); format: binding; details: fluorescence polarization; read-out: beta-Catenin FP IC50
T1 construct: 10 nM full-length beta-Catenin (Uniprot ID P35222)
T1 sequence (P35222 1-781): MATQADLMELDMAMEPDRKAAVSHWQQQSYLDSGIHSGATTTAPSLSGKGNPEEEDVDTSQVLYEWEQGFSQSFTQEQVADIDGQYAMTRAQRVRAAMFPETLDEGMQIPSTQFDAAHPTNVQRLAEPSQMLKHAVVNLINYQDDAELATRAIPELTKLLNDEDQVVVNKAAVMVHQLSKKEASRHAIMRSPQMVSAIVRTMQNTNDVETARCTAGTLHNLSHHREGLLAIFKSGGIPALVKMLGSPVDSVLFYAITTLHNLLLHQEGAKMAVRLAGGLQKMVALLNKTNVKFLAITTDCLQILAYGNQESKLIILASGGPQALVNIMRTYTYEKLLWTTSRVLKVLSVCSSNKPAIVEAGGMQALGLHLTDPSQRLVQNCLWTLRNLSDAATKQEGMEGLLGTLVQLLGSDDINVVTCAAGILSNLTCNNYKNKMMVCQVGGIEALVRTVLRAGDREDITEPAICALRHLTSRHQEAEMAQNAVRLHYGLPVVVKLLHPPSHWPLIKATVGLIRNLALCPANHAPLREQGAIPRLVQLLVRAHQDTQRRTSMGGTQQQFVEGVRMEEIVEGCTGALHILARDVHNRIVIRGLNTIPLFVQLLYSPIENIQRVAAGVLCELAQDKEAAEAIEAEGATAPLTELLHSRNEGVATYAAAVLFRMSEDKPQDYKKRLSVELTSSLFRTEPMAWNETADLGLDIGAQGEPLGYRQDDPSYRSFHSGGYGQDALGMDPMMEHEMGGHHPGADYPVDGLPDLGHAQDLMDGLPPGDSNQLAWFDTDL

[2] = target: T2, beta-catenin/TCF4 engagement (Homo sapiens, UniProt P35222); assay: Nano-BRET target engagement assay (B-cat-Halo & TCF4-Luc in HEK293 cells); format: cell-based; details: absolute IC50; read-out: NanoBRET Abs IC50
T2 construct: expressed in transfected cells; host or cells: HEK293
T2 sequence (P35222 1-781): T1 sequence (P35222 1-781)

Compound	IC50 [1] [nM]	IC50 [2] [nM]
CCCC[C@@H]1NC(=O)[C@H](CC(=O)O)NC(=O)[C@]2(CC=CCCCC3(CCCC=CCCCCCC[C@@](C)(C(=O)N[C@@H](Cc4ccccc4)C(=O)N[C@@H](Cc4csc5ccccc45)C(=O)N[C@@H](CCC(N)=O)C(N)=O)NC(=O)[C@H](CCC(N)=O)NC(=O)[C@H](Cc4ccccc4)NC(=O)[C@H](C)NC(=O)[C@H](C)NC(=O)[C@H](CCC(=O)O)NC(=O)[C@H](CC(=O)O)NC3=O)NC1=O)CCCN2C(C)=O (stereo partly drawn) [I-1521, Ac-PL3-Asp-nLeu-B5-Asp-Glu-Ala-Ala-Phe-Gln-S8-Phe-BztA-Gln-NH2]	16	6000
CCCC[C@@H]1NC(=O)[C@H](CC(=O)O)NC(=O)[C@]2(CC=CCCCC3(CCCC=CCCCCCC[C@@](C)(C(=O)N[C@@H](Cc4ccccc4)C(=O)N[C@@H](Cc4csc5ccccc45)C(=O)N[C@@H](CCC(N)=O)C(N)=O)NC(=O)[C@H](CCC(N)=O)NC(=O)[C@H](Cc4ccccc4)NC(=O)[C@H](C)NC(=O)[C@H](C)NC(=O)[C@H](CCC(=O)O)NC(=O)[C@H](CC(=O)O)NC3=O)NC1=O)CCCN2C(C)=O (stereo partly drawn) [I-1522, Ac-PL3-Asp-nLeu-B5-Asp-Glu-Ala-Ala-Phe-Gln-S8-Phe-BztA-Gln-NH2]	6	5800
CCCC[C@@H]1NC(=O)[C@H](CC(=O)O)NC(=O)[C@]2(CC=CCCCC3(CCCC=CCCCCCC[C@@](C)(C(=O)N[C@@H](Cc4ccccc4)C(=O)N[C@@H](Cc4csc5ccccc45)C(=O)N[C@@H](CCC(N)=O)C(N)=O)NC(=O)[C@H](CC(C)C)NC(=O)[C@H](Cc4ccccc4)NC(=O)[C@H](C)NC(=O)[C@H](C)NC(=O)[C@H](CCC(=O)O)NC(=O)[C@H](CC(=O)O)NC3=O)NC1=O)CCCN2C(C)=O (stereo partly drawn) [I-1523, Ac-PL3-Asp-nLeu-B5-Asp-Glu-Ala-Ala-Phe-Leu-S8-Phe-BztA-Gln-NH2]	29	8000
CCCC[C@@H]1NC(=O)[C@H](CC(=O)O)NC(=O)[C@]2(CC=CCCCC3(CCCC=CCCCCCC[C@@](C)(C(=O)N[C@@H](Cc4ccccc4)C(=O)N[C@@H](Cc4csc5ccccc45)C(=O)N[C@@H](CCC(N)=O)C(N)=O)NC(=O)[C@H](CCO)NC(=O)[C@H](Cc4ccccc4)NC(=O)[C@H](C)NC(=O)[C@H](C)NC(=O)[C@H](CCC(=O)O)NC(=O)[C@H](CC(=O)O)NC3=O)NC1=O)CCCN2C(C)=O (stereo partly drawn) [I-1524, Ac-PL3-Asp-nLeu-B5-Asp-Glu-Ala-Ala-Phe-Hse-S8-Phe-BztA-Gln-NH2]	17	8100
CCCC[C@@H]1NC(=O)[C@H](CC(=O)O)NC(=O)[C@]2(CC=CCCCC3(CCCC=CCCCCCC[C@@](C)(C(=O)N[C@@H](Cc4ccccc4)C(=O)N[C@@H](Cc4csc5ccccc45)C(=O)N[C@@H](CCC(N)=O)C(N)=O)NC(=O)[C@H](CCO)NC(=O)[C@H](Cc4ccccc4)NC(=O)[C@H](C)NC(=O)[C@H](C)NC(=O)[C@H](CCC(=O)O)NC(=O)[C@H](CC(=O)O)NC3=O)NC1=O)CCCN2C(C)=O (stereo partly drawn) [I-1525, Ac-PL3-Asp-nLeu-B5-Asp-Glu-Ala-Ala-Phe-Hse-S8-Phe-BztA-Gln-NH2]	22	10800
CC(=O)N1CCC[C@]12CC=CCCCC1(CCCC=CCCCCCC[C@@](C)(C(=O)N[C@@H](Cc3ccccc3)C(=O)N[C@@H](Cc3csc4ccccc34)C(=O)N[C@@H](CCC(N)=O)C(N)=O)NC(=O)[C@H](CCC(N)=O)NC(=O)[C@H](Cc3ccccc3)NC(=O)[C@H](C)NC(=O)[C@H](C)NC(=O)[C@H](CCC(=O)O)NC(=O)[C@H](CC(=O)O)NC1=O)NC(=O)[C@H](CO)NC(=O)[C@H](CC(=O)O)NC2=O (stereo partly drawn) [I-1526, Ac-PL3-Asp-Ser-B5-Asp-Glu-Ala-Ala-Phe-Gln-S8-Phe-BztA-Gln-NH2]	84	> 20000
CC(=O)N1CCC[C@]12CC=CCCCC1(CCCC=CCCCCCC[C@@](C)(C(=O)N[C@@H](Cc3ccccc3)C(=O)N[C@@H](Cc3csc4ccccc34)C(=O)N[C@@H](CCC(N)=O)C(N)=O)NC(=O)[C@H](CCC(N)=O)NC(=O)[C@H](Cc3ccccc3)NC(=O)[C@H](C)NC(=O)[C@H](C)NC(=O)[C@H](CCC(=O)O)NC(=O)[C@H](CC(=O)O)NC1=O)NC(=O)[C@H](CO)NC(=O)[C@H](CC(=O)O)NC2=O (stereo partly drawn) [I-1527, Ac-PL3-Asp-Ser-B5-Asp-Glu-Ala-Ala-Phe-Gln-S8-Phe-BztA-Gln-NH2]	36	30300
CC(=O)N1CCC[C@]12CC=CCCCC1(CCCC=CCCCCCC[C@@](C)(C(=O)N[C@@H](Cc3ccccc3)C(=O)N[C@@H](Cc3csc4ccccc34)C(=O)N[C@@H](CCC(N)=O)C(N)=O)NC(=O)[C@H](CC(C)C)NC(=O)[C@H](Cc3ccccc3)NC(=O)[C@H](C)NC(=O)[C@H](C)NC(=O)[C@H](CCC(=O)O)NC(=O)[C@H](CC(=O)O)NC1=O)NC(=O)[C@H](CO)NC(=O)[C@H](CC(=O)O)NC2=O (stereo partly drawn) [I-1528, Ac-PL3-Asp-Ser-B5-Asp-Glu-Ala-Ala-Phe-Leu-S8-Phe-BztA-Gln-NH2]	102	31400

The remaining lines, values ahead:

IC50 [1] [nM]	IC50 [2] [nM]	Compound
21	> 20000	CC(=O)N1CCC[C@]12CC=CCCCC1(CCCC=CCCCOC(=O)N3CC[C@@](C(=O)N[C@@H](Cc4ccsc4)C(=O)N[C@@H](Cc4csc5ccccc45)C(=O)N[C@@H](CCC(N)=O)C(N)=O)(C3)NC(=O)[C@H](CC(C)C)NC(=O)[C@H](Cc3ccccc3)NC(=O)[C@H](C)NC(=O)[C@H](C)NC(=O)[C@H](CC(=O)O)NC(=O)[C@H](CC(=O)O)NC1=O)NC(=O)[C@H](CO)NC(=O)[C@H](CC(=O)O)NC2=O (stereo partly drawn) [I-1513, Ac-PL3-Asp-Ser-B5-Asp-Asp-Ala-Ala-Phe-Leu-PyrS2-3Thi-BztA-Gln-NH2]
24	> 20000	CC(=O)N1CCC[C@]12CC=CCCCC1(CCCC=CCCCOC(=O)N3CC[C@@](C(=O)N[C@@H](Cc4ccsc4)C(=O)N[C@@H](Cc4csc5ccccc45)C(=O)N[C@@H](CCC(N)=O)C(N)=O)(C3)NC(=O)[C@H](CC(C)C)NC(=O)[C@H](Cc3ccccc3)NC(=O)[C@H](C)NC(=O)[C@H](C)NC(=O)[C@H](CC(=O)O)NC(=O)[C@H](CC(=O)O)NC1=O)NC(=O)[C@H]([C@@H](C)O)NC(=O)[C@H](CC(=O)O)NC2=O (stereo partly drawn) [I-1515, Ac-PL3-Asp-Thr-B5-Asp-Asp-Ala-Ala-Phe-Leu-PyrS2-3Thi-BztA-Gln-NH2]
30	> 20000	CC(=O)N1CCC[C@]12CC=CCCCC1(CCCC=CCCCOC(=O)N3CC[C@@](C(=O)N[C@@H](Cc4ccsc4)C(=O)N[C@@H](Cc4csc5ccccc45)C(=O)N[C@@H](CCO)C(N)=O)(C3)NC(=O)[C@H](CC(C)C)NC(=O)[C@H](Cc3ccccc3)NC(=O)[C@H](C)NC(=O)[C@H](C)NC(=O)[C@H](CC(=O)O)NC(=O)[C@H](CC(=O)O)NC1=O)NC(=O)[C@H]([C@@H](C)O)NC(=O)[C@H](CC(=O)O)NC2=O (stereo partly drawn) [I-1516, Ac-PL3-Asp-Thr-B5-Asp-Asp-Ala-Ala-Phe-Leu-PyrS2-3Thi-BztA-Hse-NH2]
32	> 20000	CC(=O)N1CCC[C@]12CC=CCCCC1(CCCC=CCCCOC(=O)N3CC[C@@](C(=O)N[C@@H](Cc4ccsc4)C(=O)N[C@@H](Cc4csc5ccccc45)C(=O)N[C@@H](CCC(N)=O)C(N)=O)(C3)NC(=O)[C@H](CC(C)C)NC(=O)[C@H](Cc3ccccc3)NC(=O)[C@H](C)NC(=O)[C@H](C)NC(=O)[C@H](CC(=O)O)NC(=O)[C@H](CC(=O)O)NC1=O)NC(=O)[C@H](CC(N)=O)NC(=O)[C@H](CC(=O)O)NC2=O (stereo partly drawn) [I-1517, Ac-PL3-Asp-Asn-B5-Asp-Asp-Ala-Ala-Phe-Leu-PyrS2-3Thi-BztA-Gln-NH2]
10	12800	CC(=O)N1CCC[C@]12CC=CCCCC1(CCCC=CCCCOC(=O)N3CC[C@@](C(=O)N[C@@H](Cc4ccsc4)C(=O)N[C@@H](Cc4csc5ccccc45)C(=O)N[C@@H](CCC(N)=O)C(N)=O)(C3)NC(=O)[C@H](CC(C)C)NC(=O)[C@H](Cc3ccccc3)NC(=O)[C@H](C)NC(=O)[C@H](C)NC(=O)[C@H](CC(=O)O)NC(=O)[C@H](CC(=O)O)NC1=O)NC(=O)[C@H](CC1CCCCC1)NC(=O)[C@H](CC(=O)O)NC2=O (stereo partly drawn) [I-1519, Ac-PL3-Asp-Cha-B5-Asp-Asp-Ala-Ala-Phe-Leu-PyrS2-3Thi-BztA-Gln-NH2]
11	17400	CC(=O)N1CCC[C@]12CC=CCCCC1(CCCC=CCCCOC(=O)N3CC[C@@](C(=O)N[C@@H](Cc4ccsc4)C(=O)N[C@@H](Cc4csc5ccccc45)C(=O)N[C@@H](CCO)C(N)=O)(C3)NC(=O)[C@H](CC(C)C)NC(=O)[C@H](Cc3ccccc3)NC(=O)[C@H](C)NC(=O)[C@H](C)NC(=O)[C@H](CC(=O)O)NC(=O)[C@H](CC(=O)O)NC1=O)NC(=O)[C@H](CC1CCCCC1)NC(=O)[C@H](CC(=O)O)NC2=O (stereo partly drawn) [I-1520, Ac-PL3-Asp-Cha-B5-Asp-Asp-Ala-Ala-Phe-Leu-PyrS2-3Thi-BztA-Hse-NH2]

From patent US20240116985A1, “STAPLED PEPTIDES AND METHODS THEREOF” (priority 2020, published 2024)
